US20200368247A1, “CENICRIVIROC FOR THE TREATMENT OF FIBROSIS” (Tobira Therapeutics, Inc., priority 2014, published 2020)

Experiment: Study 202 treatment-emergent laboratory abnormalities (DAIDS grade)
Type: in vivo, human
From the text: The 12th subject (Subject 42001) had 2 consecutive CPK elevations (Grade 3 followed by Grade 4) that returned to normal values while continuing treatment at a subsequent visit. None of the CPK elevations were associated with clinical symptoms; no subjects discontinued due to CPK elevations and there were no differences in AEs related to musculoskeletal disorders between the CVC and EFV arms.
The number of subjects with graded treatment-emergent laboratory abnormalities in selected liver parameters of interest is shown in Table 34. No Grade 4 ALT or AST elevations were observed. Except for one Grade 3 AST elevation, all ALT and AST elevations were Grade 1 or Grade 2. […] All abnormalities in bilirubin were Grade 1 or Grade 2. […]

[1] = All CVC (N = 115), EFV (N = 28)
[2] = All CVC (N = 115), EFV (N = 28), through Week 48
[3] = CVC 100 mg (N = 38), through Week 48

CCCCOCCOc1ccc(-c2ccc3c(c2)/C=C(/C(=O)Nc2ccc([S@@+]([O-])Cc4cncn4CCC)cc2)CCCN3CC(C)C)cc1 [CVC, (S)-8-[4-(2-Butoxyethoxy)phenyl]-1-isobutyl-N-(4-{[(1-propyl-1H-imidazol-5-yl)methyl]sulfinyl}phenyl)-1,2,3,4-tetrahydro-1-benzazocine-5-carboxamide]
Any graded (Grade 1-4) laboratory abnormality, % (All CVC): 92% | Worst Grade 1 laboratory abnormality, % (All CVC): 32% | Worst Grade 2 laboratory abnormality, % (All CVC): 43% | Worst Grade 3 laboratory abnormality, % (All CVC): 11% | Worst Grade 4 laboratory abnormality, % (All CVC): 5% | ALT abnormality, worst Grade 1 [1]: 10 (9%) n (%) | ALT abnormality, worst Grade 2 [1]: 5 (4%) n (%) | ALT abnormality, worst Grade 3 [1]: 0 n (%) | ALT abnormality, worst Grade 4 [1]: 0 n (%) | AST abnormality, worst Grade 1 [1]: 14 (12%) n (%) | AST abnormality, worst Grade 2 [1]: 6 (5%) n (%) | AST abnormality, worst Grade 3 [1]: 1 (< %) n (%) | AST abnormality, worst Grade 4 [1]: 0 n (%) | Alanine aminotransferase (ALT) abnormality, any worst grade [1]: 15 (13%) n (%) | Aspartate aminotransferase (AST) abnormality, any worst grade [1]: 21 (18%) n (%) | Bilirubin abnormality, any worst grade [1]: 7 (6%) n (%) | Bilirubin abnormality, worst Grade 1 [1]: 3 (3%) n (%) | Bilirubin abnormality, worst Grade 2 [1]: 4 (3%) n (%) | Bilirubin abnormality, worst Grade 3 [1]: 0 n (%) | Bilirubin abnormality, worst Grade 4 [1]: 0 n (%) | AST increased, Grade 3 [2]: 1 (<1%) n (%) | AST increased, Grade 4 [2]: 0 n (%) | Any Grade 3 laboratory abnormality [2]: 13 (11%) n (%) | Any Grade 3 or Grade 4 laboratory abnormality [2]: 19 (17%) n (%) | Any Grade 4 laboratory abnormality [2]: 6 (5%) n (%) | Aspartate aminotransferase (AST) increased (Grade 3 or 4) [2]: 1 (<1%) n (%) | CPK increased, Grade 3 [2]: 8 (7%) n (%) | CPK increased, Grade 4 [2]: 4 (3%) n (%) | Creatine phosphokinase (CPK) increased (Grade 3 or 4) [2]: 12 (10%) n (%) | Fibrinogen decreased (Grade 3 or 4) [2]: 2 (2%) n (%) | Fibrinogen decreased, Grade 3 [2]: 2 (2%) n (%) | Fibrinogen decreased, Grade 4 [2]: 0 n (%) | Hemoglobin decreased (Grade 3 or 4) [2]: 1 (<1%) n (%) | Hemoglobin decreased, Grade 3 [2]: 0 n (%) | Hemoglobin decreased, Grade 4 [2]: 1 (<1%) n (%) | Neutrophils decreased (Grade 3 or 4) [2]: 2 (2%) n (%) | Neutrophils decreased, Grade 3 [2]: 2 (2%) n (%) | Neutrophils decreased, Grade 4 [2]: 0 n (%) | Phosphate decreased (Grade 3 or 4) [2]: 4 (3%) n (%) | Phosphate decreased, Grade 3 [2]: 4 (3%) n (%) | Phosphate decreased, Grade 4 [2]: 0 n (%) | Any graded (Grade 1-4) laboratory abnormality, % (CVC 100 mg): 88% | Worst Grade 1 laboratory abnormality, % (CVC 100 mg): 36% | Worst Grade 2 laboratory abnormality, % (CVC 100 mg): 40% | Worst Grade 3 laboratory abnormality, % (CVC 100 mg): 7% | Worst Grade 4 laboratory abnormality, % (CVC 100 mg): 5% | AST increased, Grade 4 [3]: 0 n (%) | Any Grade 3 or Grade 4 laboratory abnormality [3]: 7 (12%) n (%) | Any Grade 4 laboratory abnormality [3]: 3 (5%) n (%) | Aspartate aminotransferase (AST) increased (Grade 3 or 4) [3]: 1 (2%) n (%) | CPK increased, Grade 4 [3]: 1 (2%) n (%) | Creatine phosphokinase (CPK) increased (Grade 3 or 4) [3]: 3 (5%) n (%) | Fibrinogen decreased (Grade 3 or 4) [3]: 0 n (%) | Fibrinogen decreased, Grade 3 [3]: 0 n (%) | Fibrinogen decreased, Grade 4 [3]: 0 n (%) | Hemoglobin decreased (Grade 3 or 4) [3]: 1 (2%) n (%) | Hemoglobin decreased, Grade 3 [3]: 0 n (%) | Hemoglobin decreased, Grade 4 [3]: 1 (2%) n (%) | Neutrophils decreased (Grade 3 or 4) [3]: 2 (3%) n (%) | Neutrophils decreased, Grade 3 [3]: 2 (3%) n (%) | Neutrophils decreased, Grade 4 [3]: 0 n (%) | Phosphate decreased (Grade 3 or 4) [3]: 2 (3%) n (%) | Phosphate decreased, Grade 3 [3]: 2 (3%) n (%) | Phosphate decreased, Grade 4 [3]: 0 n (%) | ALT abnormality, worst Grade 1 (CVC 100 mg (N = 58)): 4 (7%) n (%) | ALT abnormality, worst Grade 2 (CVC 100 mg (N = 58)): 3 (5%) n (%) | ALT abnormality, worst Grade 3 (CVC 100 mg (N = 58)): 0 n (%) | ALT abnormality, worst Grade 4 (CVC 100 mg (N = 58)): 0 n (%) | AST abnormality, worst Grade 1 (CVC 100 mg (N = 58)): 8 (14%) n (%) | AST abnormality, worst Grade 2 (CVC 100 mg (N = 58)): 2 (3%) n (%)
